Measurements from EP0514268A1, “Substituted amino acid azetidinyl pyridone derivatives, their preparation and use as medicines” (LABORATORIOS DEL DR. ESTEVE, S.A., priority 1991, dated 1992).
In brackets after ≈: the same amount, converted by molar mass.

What was measured:
[1] = Solubility in water and at pH 7.4; assay type: physicochemical
Text: Un grand nombre des composés de l'invention manifestent une augmentation de la solubilité dans l'eau ainsi que de la solubilité à pH 7,4 lorsqu'on compare avec les composés de référence. L'augmentation de solubilité au pH physiologique peut favoriser l'absorption du produit et la solubilité élevée dans l'eau permet l'administration du composé par voie parentérale.

[2] = system: Strep. faecalis ATCC 10541; assay: Antimicrobial activity, agar dilution; assay type: cell-based, Streptococcus faecalis; details: Enterococcus faecalis, ATCC10541, 20 h, Agar Dextrose dilutions, 37°C, 20 heures, read-out: Activité pharmacologique antimicrobienne (concentrations)
Text: (§1) L'activité pharmacologique antimicrobienne de ces composés a été étudiée selon les références exposées ci-dessous.
(§2) Activité pharmacologique antimicrobienne : G.L. Daquet et Y.A. Chabbect, techniques en bactériologie, Vol. 3, Flammarion Médecine-Sciences, Paris 1972, et W.B. Hugo et A.D. Rusell, Pharmaceutical Microbiology, Blackwell Scientific Publications, London, 1977.
(§3) Milieu de culture et solvant : Agar d'antibiotiques n° 1 (Oxoid CM 327) Bouillon de triptone-soja (Oxoid CM 129) Solution Physiologique Ringer 1/4 (Oxoid BR 52) Agar Dextrose (BBL 11165)
(§4) Microorganismes : "Bacillus subtilis" ATCC 6633 "Citrobacter freundii" ATCC 112606 "Enterobacter aerogenes" ATCC 15038 "Enterobacter cloacae" ATCC 23355 "Bacillus cereus" ATCC 1178 "Escherichia coli" ATCC 10799 "Escherichia coli" ATCC 23559 "Klebsiella pneumoniae" ATCC 10031 "Proteus vulgaris" ATCC 8427 "Morg. morganii" ATCC 8019 "Pseudomonas aeruginosa" ATCC 9721 "Pseudomonas aeruginosa" ATCC 10145 "Salmonella typhimurium" ATCC 14028 "Salmonella typhimurium" ATCC 6539 "Serratia marcescens" ATCC 13880 "Shigella flexnerii" ATCC 12022 "Staphylococcusepidermis" ATCC 155-1 "Staphylococcus aureus" ATCC 25178 "Streptococcus faecalis" ATCC 10541.
(§5) Chacun des microorganismes est ensemencé par strie dans des tubes d'Agar d'antibiotiques n° 1, et mis en incubation pendant 20 heures à 37°C. Ensuite, on prend une anse de culture, on ensemence dans un bouillon de Triptone-soja et on incube pendant 20 heures à 37°C. On dilue à 1/4 la culture obtenue avec une solution physiologique Ringer, de façon à obtenir une suspension normalisée de […] pour chaque organisme.
(§6) A partir d'une solution de 100 µg/ml, chaque produit est dilué dans l'Agar Dextrose (préalablement fondu et maintenu à 50°C) par dilutions successives de façon à obtenir les concentrations suivantes : 64-32-16-8-4-2-1-0,5-0,25-0,125 µg de dérivé/ml du milieu.
(§7) Postérieurement, chaque concentration de chaque produit est répartie dans des boîtes de Petri de 10 cm de diamètre, à raison de 10 ml de milieu par boîte et autant de boîtes que de microorganismes à tester.
(§8) Une fois le milieu refroidi, les boîtes sont ensemencées avec les inoculations à raison de 0,4 ml d'inoculation par boîte. On les étend avec une anse de Driglasky et on recueille le surnageant. Les boîtes ensemencées sont incubées à 37°C pendant 20 heures.
(§9) Les résultats obtenus sont décrits dans les tableaux suivants. Les concentrations sont données en µg/ml.

Staph. aureus ATCC 25178 = assay: Antimicrobial activity, agar dilution; assay type: cell-based, Staphylococcus aureus; details: Staphylococcus aureus, ATCC25178, 20 h, Agar Dextrose dilutions, 37°C, 20 heures, read-out: Activité pharmacologique antimicrobienne (concentrations)
Text: as §1, §2, §3, §4, §5, §6, §7, §8, §9

[3] = system: Citr. freundii ATCC 11606; assay: Antimicrobial activity, agar dilution; assay type: cell-based, Citrobacter freundii; details: Citrobacter freundii, ATCC11606, 20 h, Agar Dextrose dilutions, 37°C, 20 heures, read-out: Activité pharmacologique antimicrobienne (concentrations)
Text: as §1, §2, §3, §4, §5, §6, §7, §8, §9

[4] = system: Bacillus cereus ATCC 11778; assay: Antimicrobial activity, agar dilution; assay type: cell-based; details: Bacillus cereus, ATCC11778, 20 h, Agar Dextrose dilutions, 37°C, 20 heures, read-out: Activité pharmacologique antimicrobienne (concentrations)
Text: as §1, §2, §3, §4, §5, §6, §7, §8, §9

[5] = system: Bacillus subtilis ATCC 6633; assay: Antimicrobial activity, agar dilution; assay type: cell-based; details: ATCC6633, 20 h, Agar Dextrose dilutions, 37°C, 20 heures, read-out: Activité pharmacologique antimicrobienne (concentrations)
Text: as §1, §2, §3, §4, §5, §6, §7, §8, §9

[6] = system: Escherichia coli ATCC 10799; assay: Antimicrobial activity, agar dilution; assay type: cell-based; details: Escherichia coli, ATCC10799, 20 h, Agar Dextrose dilutions, 37°C, 20 heures, read-out: Activité pharmacologique antimicrobienne (concentrations)
Text: as §1, §2, §3, §4, §5, §6, §7, §8, §9

[7] = system: Escherichia coli ATCC 23559; assay: Antimicrobial activity, agar dilution; assay type: cell-based; details: Escherichia coli, ATCC23559, 20 h, Agar Dextrose dilutions, 37°C, 20 heures, read-out: Activité pharmacologique antimicrobienne (concentrations)
Text: as §1, §2, §3, §4, §5, §6, §7, §8, §9

Morg. morganii ATCC 8019 = assay: Antimicrobial activity, agar dilution; assay type: cell-based; details: Morganella morganii, ATCC8019, 20 h, Agar Dextrose dilutions, 37°C, 20 heures, read-out: Activité pharmacologique antimicrobienne (concentrations)
Text: as §1, §2, §3, §4, §5, §6, §7, §8, §9

[8] = system: Proteus vulgaris ATCC 8427; assay: Antimicrobial activity, agar dilution; assay type: cell-based; details: Proteus vulgaris, ATCC8427, 20 h, Agar Dextrose dilutions, 37°C, 20 heures, read-out: Activité pharmacologique antimicrobienne (concentrations)
Text: as §1, §2, §3, §4, §5, §6, §7, §8, §9

[9] = system: Ps. aeruginosa ATCC 10145; assay: Antimicrobial activity, agar dilution; assay type: cell-based; details: Pseudomonas aeruginosa, ATCC10145, 20 h, Agar Dextrose dilutions, 37°C, 20 heures, read-out: Activité pharmacologique antimicrobienne (concentrations)
Text: as §1, §2, §3, §4, §5, §6, §7, §8, §9

Ps. aeruginosa ATCC 9721 = assay: Antimicrobial activity, agar dilution; assay type: cell-based; details: Pseudomonas aeruginosa, ATCC9721, 20 h, Agar Dextrose dilutions, 37°C, 20 heures, read-out: Activité pharmacologique antimicrobienne (concentrations)
Text: as §1, §2, §3, §4, §5, §6, §7, §8, §9

Sal. typhi ATCC 6539 = assay: Antimicrobial activity, agar dilution; assay type: cell-based; details: Salmonella enterica, 20 h, read-out: Activité pharmacologique antimicrobienne (concentrations)
Text: as §1, §2, §3, §4, §5, §6, §7, §8, §9

[10] = system: Shigella flexnerii ATCC 12022; assay: Antimicrobial activity, agar dilution; assay type: cell-based; details: ATCC12022, 20 h, Agar Dextrose dilutions, 37°C, 20 heures, read-out: Activité pharmacologique antimicrobienne (concentrations)
Text: as §1, §2, §3, §4, §5, §6, §7, §8, §9

[11] = system: Staph. epidermidis ATCC 155-1; assay: Antimicrobial activity, agar dilution; assay type: cell-based; details: Staphylococcus epidermidis, ATCC155, 20 h, Agar Dextrose dilutions, 37°C, 20 heures, read-out: Activité pharmacologique antimicrobienne (concentrations)
Text: as §1, §2, §3, §4, §5, §6, §7, §8, §9

[12] = system: Kleb. pneumoniae ATCC 10031; assay: Antimicrobial activity, agar dilution; assay type: cell-based, Klebsiella pneumoniae; details: Klebsiella pneumoniae, ATCC10031, 20 h, Agar Dextrose dilutions, 37°C, 20 heures, read-out: Activité pharmacologique antimicrobienne (concentrations)
Text: as §1, §2, §3, §4, §5, §6, §7, §8, §9

[13] = system: Sal. typhimurium ATCC 14028; assay: Antimicrobial activity, agar dilution; assay type: cell-based, Salmonella typhimurium; details: Salmonella enterica, 20 h, Agar Dextrose dilutions, 37°C, 20 heures, read-out: Activité pharmacologique antimicrobienne (concentrations)
Text: as §1, §2, §3, §4, §5, §6, §7, §8, §9

[14] = system: Ent. aerogenes ATCC 15038; assay: Antimicrobial activity, agar dilution; assay type: cell-based, Enterobacter aerogenes; details: Klebsiella aerogenes, ATCC15038, 20 h, Agar Dextrose dilutions, 37°C, 20 heures, read-out: Activité pharmacologique antimicrobienne (concentrations)
Text: as §1, §2, §3, §4, §5, §6, §7, §8, §9

Ent. cloacae ATCC 23355 = assay: Antimicrobial activity, agar dilution; assay type: cell-based, Enterobacter cloacae; details: Enterobacter cloacae, ATCC23355, 20 h, Agar Dextrose dilutions, 37°C, 20 heures, read-out: Activité pharmacologique antimicrobienne (concentrations)
Text: as §1, §2, §3, §4, §5, §6, §7, §8, §9

[15] = system: Serr. marcescens ATCC 13880; assay: Antimicrobial activity, agar dilution; assay type: cell-based, Serratia marcescens; details: Serratia marcescens, ATCC13880, 20 h, Agar Dextrose dilutions, 37°C, 20 heures, read-out: Activité pharmacologique antimicrobienne (concentrations)
Text: as §1, §2, §3, §4, §5, §6, §7, §8, §9

Row | SMILES | solubility ([1]; pH 7) [µg/mL] | solubility ([1]; water) [µg/mL] | MIC [2] [µg/mL] | MIC (Staph. aureus ATCC 25178) [µg/mL] | MIC [3] [µg/mL] | MIC [4] [µg/mL] | MIC [5] [µg/mL] | MIC [6] [µg/mL] | MIC [7] [µg/mL] | MIC (Morg. morganii ATCC 8019) [µg/mL] | MIC [8] [µg/mL] | MIC [9] [µg/mL] | MIC (Ps. aeruginosa ATCC 9721) [µg/mL] | MIC (Sal. typhi ATCC 6539) [µg/mL] | MIC [10] [µg/mL] | MIC [11] [µg/mL] | MIC [12] [µg/mL] | MIC [13] [µg/mL] | MIC [14] [µg/mL] | MIC (Ent. cloacae ATCC 23355) [µg/mL] | other results
1 | C[C@H](N)C(=O)NC1CN(c2nc3c(cc2F)c(=O)c(C(=O)O)cn3-c2ccc(F)cc2F)C1 [Exemple 4bA, chlorhydratede l'acide 7-(3-Ala-amino-1-azétidinyl)-1-(2,4-difluorophényl)-6-fluoro-1,4-dihydro-4-oxo-1,8-naphtyridine-3-carboxylique] | 66.9 | 128 | 8 | 1 | 1 | 4 | 0.5 | 2 | 1 | 2 | 8 | 16 | 8 | 1 | 1 | 4 | 1 | 2 | 1 | 1 | MIC [15]: 8 µg/mL
2 | NCC(=O)NC1CN(c2nc3c(cc2F)c(=O)c(C(=O)O)cn3-c2ccc(F)cc2F)C1 [Exemple 4bG] | 7.6 (≈ 17 µM) | > 500 | 16 (≈ 35.8 µM) | 1 (≈ 2.24 µM) | 1 (≈ 2.24 µM) | 1 (≈ 2.24 µM) | 1 (≈ 2.24 µM) | 2 (≈ 4.47 µM) | 0.5 (≈ 1.12 µM) | 4 (≈ 8.94 µM) | 8 (≈ 17.9 µM) | > 32 | 16 (≈ 35.8 µM) | 1 (≈ 2.24 µM) | 0.5 (≈ 1.12 µM) | 2 (≈ 4.47 µM) | 1 (≈ 2.24 µM) | 4 (≈ 8.94 µM) | 1 (≈ 2.24 µM) | 1 (≈ 2.24 µM) | MIC [15]: 16 µg/mL (≈ 35.8 µM)
3 | CC(C)C[C@H](N)C(=O)NC1CN(c2nc3c(cc2F)c(=O)c(C(=O)O)cn3-c2ccc(F)cc2F)C1 [Exemple 4bL, chlorhydratede l'acide 7-(3-Leu-amino-1-azétidinyl)-1-(2,4-difluorophényl)-6-fluoro-1,4-dihydro-4-oxo-1,8-naphtyridine-3-carboxylique] | 23.1 | > 500 | 1 | 4 | 1 | 0.5 | 0.25 | 1 | 0.25 | 2 | 2 | 8 | 4 | 1 | 0.25 | 1 | 0.12 | 1 | 0.5 | 0.5 | MIC [15]: 2 µg/mL
4 | C[C@H](N)C(=O)N[C@@H]1CN(c2cc3c(cc2F)c(=O)c(C(=O)O)cn3-c2ccc(F)cc2F)[C@H]1C [Exemple 4eA] | > 500 | > 500 | 8 (≈ 16.9 µM) | 1 (≈ 2.11 µM) | 2 (≈ 4.22 µM) | 1 (≈ 2.11 µM) | 0.5 (≈ 1.05 µM) | 2 (≈ 4.22 µM) | 1 (≈ 2.11 µM) | 4 (≈ 8.43 µM) | 16 (≈ 33.7 µM) | 8 (≈ 16.9 µM) | 8 (≈ 16.9 µM) | 2 (≈ 4.22 µM) | 0.5 (≈ 1.05 µM) | 16 (≈ 33.7 µM) | 2 (≈ 4.22 µM) | 2 (≈ 4.22 µM) | 2 (≈ 4.22 µM) | 2 (≈ 4.22 µM) | MIC [15]: 8 µg/mL (≈ 16.9 µM)
